Consider twelve molecules from patent publication US4778511A, “Fluorine-containing N-sulphenylated indazoles for use as bactericides and fungicides” (Bayer Aktiengesellschaft, priority 1985, dated 1988).

Broadly, the MIC is the lowest concentration that inhibits growth of the organism. Read a low MIC as inhibition by little substance.

Values after ≈ are worked out from the molar mass of the structure shown. Some results are limits rather than exact numbers.

For one assay, the system named is Aspergillus niger. Nature of the assay: MIC against fungi (agar), Aspergillus niger. The format is cell-based. The conditions noted are these: 336 h, beer wort/peptone agar, 2 weeks at 28° C., 60 to 70% relative humidity. The method, then: (§1) Active compounds, according to the invention, are added in concentrations of 0.1 mg/l to 5000 mg/l, to an agar prepared from beer wort and peptone. The MIC is determined after the agar has been stored for 2 weeks at 28° C. and 60 to 70% relative atmospheric humidity. MlC is the lowest concentration of active compound at which the species of microbe used undergoes no growth at all; it is shown in the table below.

The next assay deals with Chaelomium globosum. Nature of the assay: MIC against fungi (agar), Chaetomium globosum. The format is cell-based. As to conditions: 336 h, beer wort/peptone agar, 2 weeks at 28° C., 60 to 70% relative humidity. On the procedure: as §1
Another assay concerns Penicillium glaucum. Nature of the assay: MIC against fungi (agar), Penicillium glaucum. The format is cell-based. As to conditions: 336 h, beer wort/peptone agar, 2 weeks at 28° C., 60 to 70% relative humidity. On the procedure: as §1
The test system of a further assay is Allernaria tenuis. Nature of the assay: MIC against fungi (agar), Alternaria tenuis. The conditions noted are these: Alternaria alternata, 336 h, beer wort/peptone agar, 2 weeks at 28° C., 60 to 70% relative humidity. The format is cell-based. The method, then:
as §1

In the next assay the test system is Aureobasidium pullulans. Nature of the assay: MIC against fungi (agar), Aureobasidium pullulans. Type of assay: cell-based. As to conditions: 336 h, beer wort/peptone agar, 2 weeks at 28° C., 60 to 70% relative humidity. On the procedure:
as §1

The subject of a further assay is Cladosporium. Nature of the assay: MIC against fungi (agar), Cladosporium. Type of assay: cell-based. The conditions noted are these: 336 h, beer wort/peptone agar, 2 weeks at 28° C., 60 to 70% relative humidity. On the procedure:
as §1

Another assay deals with Lentinus tigrinus. Nature of the assay: MIC against fungi (agar), Lentinus tigrinus. The conditions noted are these: 336 h, beer wort/peptone agar, 2 weeks at 28° C., 60 to 70% relative humidity. Type of assay: cell-based. The method, then: as §1
For a further assay, the system named is Sclerophoma pityophila. Nature of the assay: MIC against fungi (agar), Sclerophoma pityophila. The format is cell-based. The conditions noted are these: Sydowia polyspora, 336 h, beer wort/peptone agar, 2 weeks at 28° C., 60 to 70% relative humidity. On the procedure: as §1
The test system of assay [1] is Drechslera graminea (syn. Helminthosporium gramineum). Nature of the assay: Drechslera graminea test (barley)/seed treatment. Type of assay: in vivo. The conditions noted are these: application rate 500 mg/kg of seed, approx. 3 weeks after sowing, undressed 23.4. On the procedure: Drechslera graminea test (barley)/seed treatment (syn. Helminthosporium gramineum)
The active compounds are applied in the form of dry dressing agents. They are formulated by diluting the particular active compound with ground minerals to give a finely powdered mixture, which ensures uniform distribution on the surface of the seed.
The infested seed is dressed by shaking it for 3 minutes with the dressing agent in a closed glass jar.
Embedded in sieved, moist standard soil, the seed is exposed to a temperature of 4° C. for 10 days in closed Petri dishes in a refrigerator. This initiates the germination of the barley sand, if appropriate, also that of the fungus spores. The pre-germinated barley is then sown in 2 lots of 50 grains 3 cm deep in standard soil and is cultivated in seed boxes which are exposed to light for 15 hours a day in a greenhouse at a temperature of approx. 18° C.
The plants are evaluated for symptoms of stripe disease approx. 3 weeks after sowing.

The subject of the next assay is Polyporus versicolor. Nature of the assay: MIC against fungi (agar), Polyporus versicolor. Type of assay: cell-based. As to conditions: Trametes versicolor, 336 h, beer wort/peptone agar, 2 weeks at 28° C., 60 to 70% relative humidity. On the procedure:
as §1

The next assay has as its system Trichoderma viride. Nature of the assay: MIC against fungi (agar), Trichoderma viride. The conditions noted are these: 336 h, beer wort/peptone agar, 2 weeks at 28° C., 60 to 70% relative humidity. Type of assay: cell-based. On the procedure: as §1
The subject of another assay is slime organisms. Nature of the assay: Action against slime organisms (MIC). Type of assay: cell-based. As to conditions: 504 h; slime organisms approx. 10^6 microbes/ml, Allen's nutrient solution with 1% caprolactam, room temperature, 3 weeks. On the procedure:
Substances according to the invention are used in concentrations of 0.1 to 100 mg/l in each case, dissolved in a little acetone, in Allen's nutrient solution (Arch. Mikrobiol. 17, 34 to 53 (1952)) containing 0.2 g of ammonium chloride, 4.0 g of sodium nitrate, 1.0 g of dipotassium hydrogenphosphate, 0.2 g of calcium chloride, 2.05 g of magnesium sulphate and 0.02 g of iron chloride, together with 1% of caprolactam, in 4 l of sterile water. Shortly beforehand, the nutrient solution is infested with slime organisms (approx. 10^6 microbes/ml), isolated from the spinning water circulation used in the production of polyamide.

With `Fc1cccc2c1cnn2SC(F)(Cl)Cl` [1-Dichlorofluoromethylsulphenyl-4-fluoroindazole, reference compound], the results for the MIC in the assay with Aspergillus niger, in the assay on Chaelomium globosum and against Penicillium glaucum were 500 µg/mL (≈ 1860 µM), 200 µg/mL (≈ 743 µM) and 200 µg/mL (≈ 743 µM), respectively.
For the molecule `FC(F)(F)Oc1ccc2cnn(SC(Cl)(Cl)Cl)c2c1` [Example 1, 6-Trifluoromethoxy-1-trichloromethylsulphenylindazole], the MIC was determined as 150 µg/mL (≈ 427 µM) in the assay on Allernaria tenuis; 20 µg/mL (≈ 56.9 µM) in the assay with Aspergillus niger; 350 µg/mL (≈ 996 µM) against Aureobasidium pullulans; 75 µg/mL (≈ 213 µM) against Chaelomium globosum; 20 µg/mL (≈ 56.9 µM) against Cladosporium; 75 µg/mL (≈ 213 µM) against Lentinus tigrinus. The MIC stood at 20 µg/mL (≈ 56.9 µM) against Penicillium glaucum and 75 µg/mL (≈ 213 µM) in the assay with Sclerophoma pityophila.
Take `FC(F)(F)Oc1ccc2cnn(SC(F)(Cl)Cl)c2c1` [Example 2, 6-Trifluoromethoxy-1-dichlorofluoromethylsulphenylindazole]: the MIC against Allernaria tenuis turned out to be 75 µg/mL (≈ 224 µM); in the assay with Aspergillus niger, 20 µg/mL (≈ 59.7 µM); against Aureobasidium pullulans, 150 µg/mL (≈ 448 µM); against Chaelomium globosum, 2 µg/mL (≈ 5.97 µM); against Cladosporium it was 20 µg/mL (≈ 59.7 µM); in the assay with Lentinus tigrinus, 20 µg/mL (≈ 59.7 µM). Besides, the MIC against Penicillium glaucum came out at 2 µg/mL (≈ 5.97 µM); against Sclerophoma pityophila it was 35 µg/mL (≈ 104 µM). The “Diseased plants as % of all the emerged plants” value in assay [1] amounted to 4.1%.
With `FC1Oc2cc3c(cnn3SC(F)(Cl)Cl)cc2OC1(F)F` (centres unmarked) [Example 4], the figures for the MIC against Aspergillus niger, with Chaelomium globosum and in the assay on Penicillium glaucum were 150 µg/mL (≈ 413 µM), 100 µg/mL (≈ 275 µM) and 100 µg/mL (≈ 275 µM), respectively.
In the case of `FC(F)(F)Oc1ccc2c(cnn2SC(F)(Cl)Cl)c1` [Example 5], the MIC stood at 20 µg/mL (≈ 59.7 µM) with Allernaria tenuis; 20 µg/mL (≈ 59.7 µM) in the assay with Aspergillus niger; 20 µg/mL (≈ 59.7 µM) in the assay with Aureobasidium pullulans; 20 µg/mL (≈ 59.7 µM) in the assay on Chaelomium globosum; 0.1 µg/mL (≈ 0.298 µM) in the assay with Lentinus tigrinus; 20 µg/mL (≈ 59.7 µM) against Penicillium glaucum. Besides, the MIC in the assay on Polyporus versicolor is 2 µg/mL (≈ 5.97 µM); against Sclerophoma pityophila, 0.75 µg/mL (≈ 2.24 µM); against Trichoderma viride it was 50 µg/mL (≈ 149 µM); against slime organisms it was 5 to 10 µg/mL (≈ 14.9 to 29.8 µM).
In the case of `Cc1cc(C(F)(F)F)c2cnn(SC(F)(Cl)Cl)c2c1Cl` [Example 8], the minimum inhibitory concentration (MIC) against Aspergillus niger is 500 µg/mL (≈ 1360 µM); in the assay with Chaelomium globosum it was under 20 µg/mL; against Penicillium glaucum, under 20 µg/mL.
On to `FC(F)(F)Oc1ccc2c(cnn2SC(F)(Cl)Cl)c1Cl` [Example 12], for which the MIC was determined as 200 µg/mL (≈ 541 µM) against Allernaria tenuis; 50 µg/mL (≈ 135 µM) in the assay on Aspergillus niger; 500 µg/mL (≈ 1350 µM) against Aureobasidium pullulans; 20 µg/mL (≈ 54.1 µM) against Chaelomium globosum; 20 µg/mL (≈ 54.1 µM) in the assay with Cladosporium; 7.5 µg/mL (≈ 20.3 µM) against Lentinus tigrinus. The minimal inhibitory concentration (MIC) against Penicillium glaucum was 20 µg/mL (≈ 54.1 µM); with Sclerophoma pityophila, 200 µg/mL (≈ 541 µM).
Turning to `Cc1cc2cnn(SC(F)(Cl)Cl)c2c(C)c1C(F)(F)F` [Example 15], the MIC was 50 µg/mL (≈ 144 µM) against Aspergillus niger, under 20 µg/mL against Chaelomium globosum and under 20 µg/mL against Penicillium glaucum.
For the molecule `FC(F)(F)Sc1ccc2cnn(SC(F)(Cl)Cl)c2c1` [Example 16], the MIC against Aspergillus niger, against Chaelomium globosum and against Penicillium glaucum was under 20 µg/mL in each case.
Consider `FC(Cl)(Cl)Sn1ncc2c(Cl)c(Cl)c(C(F)(F)F)cc21` [Example 17], for which the values for the minimum inhibitory concentration (MIC) against Aspergillus niger, with Chaelomium globosum and in the assay with Penicillium glaucum were 500 µg/mL (≈ 1290 µM), under 20 µg/mL and under 20 µg/mL, respectively.
`FC(F)(F)Sc1ccc2c(cnn2SC(F)(Cl)Cl)c1` [Example 18]: the minimal inhibitory concentration (MIC) in the assay on Aspergillus niger, against Chaelomium globosum and with Penicillium glaucum was under 20 µg/mL each time.
For `Cc1cc(F)cc2c1cnn2SC(F)(Cl)Cl` [Example 19], the MIC against Allernaria tenuis turned out to be 15 µg/mL (≈ 53 µM); against Aspergillus niger it was 10 µg/mL (≈ 35.3 µM); against Aureobasidium pullulans, 50 µg/mL (≈ 177 µM); against Chaelomium globosum, 10 µg/mL (≈ 35.3 µM); with Cladosporium it was 5 µg/mL (≈ 17.7 µM); in the assay on Lentinus tigrinus, 0.5 µg/mL (≈ 1.77 µM). The figures for the MIC in the assay with Penicillium glaucum, in the assay with Sclerophoma pityophila and with Trichoderma viride were 20 µg/mL (≈ 70.6 µM), 15 µg/mL (≈ 53 µM) and 500 µg/mL (≈ 1770 µM), respectively.
